Laboratory results: ChEMBL document CHEMBL1201862, “PubChem BioAssay data set” (2004)
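Interpolation was linear, between the two tested concentrations surrounding the appropriate level; five concentrations were tested over 48 hours in 96-well plates. The concentration for 50% growth inhibition is given as GI50.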 The source made the active and inactive calls. Rule as the data show it: active = GI50 up to about 1.1 µM and inactive = higher.

Key:
Experiment in all cases: NCI anticancer screen, dose series, 48 h
MDA-MB-231 = test system: MDA-MB-231
SF-268 = test system: SF-268
COLO 205 = test system: COLO 205
U-251 = test system: U-251
HCT-116 = test system: HCT-116
NCI-H522 = test system: NCI-H522
T47D = test system: T47D
KM12 = test system: KM12
HT-29 = test system: HT-29
IGROV-1 = test system: IGROV-1
HCC 2998 = test system: HCC 2998
SK-OV-3 = test system: SK-OV-3
Hs-578T = test system: Hs-578T
OVCAR-5 = test system: OVCAR-5
CAKI-1 = test system: CAKI-1
MDA-MB-435 = test system: MDA-MB-435
NCI-H226 = test system: NCI-H226
MOLT-4 = test system: MOLT-4
SF-539 = test system: SF-539
NCI/ADR-RES = test system: NCI/ADR-RES

| SMILES | GI50 (MDA-MB-231) | GI50 (SF-268) | GI50 (COLO 205) | GI50 (U-251) | GI50 (HCT-116) | GI50 (NCI-H522) | GI50 (T47D) | GI50 (KM12) | GI50 (HT-29) | GI50 (IGROV-1) | GI50 (HCC 2998) | GI50 (SK-OV-3) | GI50 (Hs-578T) | GI50 (OVCAR-5) | GI50 (CAKI-1) | GI50 (MDA-MB-435) | GI50 (NCI-H226) | GI50 (MOLT-4) | GI50 (SF-539) | GI50 (NCI/ADR-RES) |
| --- | --- | --- | --- | --- | --- | --- | --- | --- | --- | --- | --- | --- | --- | --- | --- | --- | --- | --- | --- | --- |
| COc1cccc(/C=C2\CCCCCC2=O)c1 | > 100 µM (inactive) | > 100 µM (inactive) | > 100 µM (inactive) | 65.3 µM (inactive) | 80.7 µM (inactive) | > 100 µM (inactive) | > 100 µM (inactive) | 65.5 µM (inactive) | > 100 µM (inactive) | > 100 µM (inactive) | > 100 µM (inactive) | > 100 µM (inactive) | > 100 µM (inactive) | > 100 µM (inactive) | > 100 µM (inactive) | 48.1 µM (inactive) | > 100 µM (inactive) | 71.9 µM (inactive) | – | – |
| O=C1/C(=C/c2ccc(Cl)cc2)CCCc2ccccc21 | 19.6 µM (inactive) | 13.9 µM (inactive) | 20.6 µM (inactive) | 14.2 µM (inactive) | 13.6 µM (inactive) | 11.7 µM (inactive) | – | 15.2 µM (inactive) | 4.67 µM (inactive) | 18.2 µM (inactive) | 22.2 µM (inactive) | 43.1 µM (inactive) | 11.7 µM (inactive) | 16.9 µM (inactive) | 39.4 µM (inactive) | 17.1 µM (inactive) | 16.4 µM (inactive) | 14.8 µM (inactive) | 17.9 µM (inactive) | 15.1 µM (inactive) |
| CNC(=S)N/N=C(\C(=N/NC(=S)NC)c1ccccn1)c1ccccn1 | – | 1.19 µM (inactive) | 1.41 µM (inactive) | 0.289 µM (active) | < 0.0306 µM (active) | 1.77 µM (inactive) | – | 14.2 µM (inactive) | < 0.01 µM (active) | 0.759 µM (active) | > 23 µM (inactive) | 0.726 µM (active) | 5.38 µM (inactive) | – | 5.04 µM (inactive) | 13.8 µM (inactive) | 2 µM (inactive) | – | 45.8 µM (inactive) | < 0.02 µM (active) |
| O=S(=O)(c1ccccc1)C(c1ccc2ccccc2n1)S(=O)(=O)c1ccccc1 | > 100 µM (inactive) | > 100 µM (inactive) | > 100 µM (inactive) | > 100 µM (inactive) | > 100 µM (inactive) | 90.2 µM (inactive) | – | > 100 µM (inactive) | > 100 µM (inactive) | > 100 µM (inactive) | 48.5 µM (inactive) | – | > 100 µM (inactive) | > 100 µM (inactive) | > 100 µM (inactive) | > 10 µM (inactive) | > 100 µM (inactive) | > 100 µM (inactive) | > 100 µM (inactive) | > 100 µM (inactive) |
| O=C1C(Cl)=C(NCCF)C(=O)c2ncccc21 | 1.9 µM (inactive) | 2.03 µM (inactive) | – | 1.46 µM (inactive) | 1.76 µM (inactive) | – | 2.2 µM (inactive) | 1.93 µM (inactive) | 2.97 µM (inactive) | 1.95 µM (inactive) | 1.36 µM (inactive) | 2.29 µM (inactive) | 1.83 µM (inactive) | 1.88 µM (inactive) | – | 0.212 µM (active) | 1.92 µM (inactive) | 1.55 µM (inactive) | 1.81 µM (inactive) | – |
| CCOC(=O)C(=[N+]=[N-])C(=O)CN1C(=O)c2ccccc2C1=O | > 100 µM (inactive) | > 100 µM (inactive) | > 100 µM (inactive) | > 100 µM (inactive) | > 100 µM (inactive) | > 100 µM (inactive) | > 100 µM (inactive) | – | > 100 µM (inactive) | > 100 µM (inactive) | > 100 µM (inactive) | > 100 µM (inactive) | > 100 µM (inactive) | > 100 µM (inactive) | > 100 µM (inactive) | > 100 µM (inactive) | – | > 100 µM (inactive) | > 100 µM (inactive) | – |
| CCC(=O)Nc1cccc(NC(=O)c2c(Cl)c(Cl)c(Cl)c(Cl)c2-c2nc3ccccc3[nH]2)c1 | – | 79.4 µM (inactive) | 53.1 µM (inactive) | – | 7.82 µM (inactive) | 56.2 µM (inactive) | 7.82 µM (inactive) | 0.0968 µM (active) | 66.2 µM (inactive) | 14.2 µM (inactive) | 49.7 µM (inactive) | – | > 100 µM (inactive) | > 100 µM (inactive) | 82.4 µM (inactive) | 32.4 µM (inactive) | – | 22.8 µM (inactive) | > 100 µM (inactive) | > 100 µM (inactive) |
| CC1(C)CNCC(C)(OCc2ccccc2)C(=O)NC(C)(C)CNCC(C)(OCc2ccccc2)C(=O)N1 (configuration not stated) | > 10 µM (inactive) | > 10 µM (inactive) | – | > 10 µM (inactive) | 8.99 µM (inactive) | – | > 10 µM (inactive) | > 10 µM (inactive) | – | > 10 µM (inactive) | > 10 µM (inactive) | > 10 µM (inactive) | 5.09 µM (inactive) | > 10 µM (inactive) | – | > 10 µM (inactive) | > 10 µM (inactive) | > 10 µM (inactive) | > 10 µM (inactive) | – |
| CCN(CC)C(=O)N1CN(c2ccccc2)C2(CCN(CCCSc3ccc(F)cc3)CC2)C1=O | – | 11.1 µM (inactive) | 1.92 µM (inactive) | 11.9 µM (inactive) | 2.58 µM (inactive) | 13.2 µM (inactive) | 4.01 µM (inactive) | 10.2 µM (inactive) | 2.85 µM (inactive) | – | – | 19 µM (inactive) | 2.79 µM (inactive) | 14.3 µM (inactive) | 87.7 µM (inactive) | 12.8 µM (inactive) | 18.9 µM (inactive) | 3.25 µM (inactive) | 8.34 µM (inactive) | 21.2 µM (inactive) |
| COc1ccc(-c2csc(-n3c(-c4ccccc4)nc4c(Br)cc(Br)cc4c3=O)n2)cc1 | 28.5 µM (inactive) | 15.6 µM (inactive) | 37 µM (inactive) | 28.7 µM (inactive) | 22.5 µM (inactive) | 19.8 µM (inactive) | – | 33.6 µM (inactive) | 26.7 µM (inactive) | 2.92 µM (inactive) | 28.1 µM (inactive) | 28.1 µM (inactive) | 41 µM (inactive) | 20.9 µM (inactive) | 35.7 µM (inactive) | 38.3 µM (inactive) | 27.7 µM (inactive) | 17.8 µM (inactive) | – | 19.6 µM (inactive) |
| CC1=C2CC3=C(C)C(=O)O[C@H]3C[C@@H](C)[C@@H]2CC1 [AMERICANOLIDE D] | > 100 µM (inactive) | > 100 µM (inactive) | > 100 µM (inactive) | > 100 µM (inactive) | > 100 µM (inactive) | – | – | 7.48 µM (inactive) | 85.9 µM (inactive) | > 100 µM (inactive) | > 100 µM (inactive) | > 100 µM (inactive) | > 100 µM (inactive) | > 100 µM (inactive) | > 100 µM (inactive) | > 100 µM (inactive) | > 100 µM (inactive) | 51.9 µM (inactive) | – | > 100 µM (inactive) |
| CC(NC(=O)OC(C)(C)C)C(=O)NC(Cc1ccccc1)C(=O)NCC(=O)ON=C1CCCC1 (configuration not stated) | 43.5 µM (inactive) | > 100 µM (inactive) | > 100 µM (inactive) | 68.1 µM (inactive) | 72.8 µM (inactive) | 32.7 µM (inactive) | > 100 µM (inactive) | 57.4 µM (inactive) | > 100 µM (inactive) | > 100 µM (inactive) | 89.7 µM (inactive) | > 100 µM (inactive) | – | > 100 µM (inactive) | > 100 µM (inactive) | > 100 µM (inactive) | > 100 µM (inactive) | 41.9 µM (inactive) | > 100 µM (inactive) | > 100 µM (inactive) |
| COc1c2c(cc3c1-c1c(cc4c(c1OC)OCO4)C1OC3C(C)C1C)OCO2.COc1cc2c(c(OC)c1OC)-c1c(cc3c(c1OC)OCO3)C1OC2C(C)C1C (configuration not stated) | 8 µM (inactive) | > 100 µM (inactive) | > 100 µM (inactive) | > 100 µM (inactive) | 87.3 µM (inactive) | 61.4 µM (inactive) | 26.1 µM (inactive) | 95.1 µM (inactive) | 88.7 µM (inactive) | 70.6 µM (inactive) | 56.4 µM (inactive) | > 100 µM (inactive) | > 100 µM (inactive) | > 100 µM (inactive) | > 100 µM (inactive) | > 100 µM (inactive) | > 100 µM (inactive) | 22.3 µM (inactive) | > 100 µM (inactive) | – |
| COc1cccc(N2C(=O)CSC2c2cc(OC)c(OC)c(OC)c2)c1 (configuration not stated) | 69.7 µM (inactive) | > 100 µM (inactive) | 23 µM (inactive) | 34.8 µM (inactive) | 31.8 µM (inactive) | 26.4 µM (inactive) | – | 12.2 µM (inactive) | 33.1 µM (inactive) | 44.6 µM (inactive) | 22.7 µM (inactive) | 26.7 µM (inactive) | 48.2 µM (inactive) | 54.8 µM (inactive) | 30.8 µM (inactive) | 3.85 µM (inactive) | 26.7 µM (inactive) | 29.8 µM (inactive) | 24.5 µM (inactive) | 26.5 µM (inactive) |
| N#CC(c1cc(Cl)ncn1)c1nc2ccccc2s1 (configuration not stated) | 11.1 µM (inactive) | 5.25 µM (inactive) | 14.8 µM (inactive) | 4.02 µM (inactive) | 7.53 µM (inactive) | 2.07 µM (inactive) | 2.67 µM (inactive) | 3.87 µM (inactive) | 10.3 µM (inactive) | 6.92 µM (inactive) | – | 14.8 µM (inactive) | – | 18.1 µM (inactive) | 18.6 µM (inactive) | 18.1 µM (inactive) | 25.8 µM (inactive) | 3.42 µM (inactive) | 5.42 µM (inactive) | 3.29 µM (inactive) |
